Assay results published in patent publication US20210052566A1, “METHODS FOR TREATING HEPATITIS B VIRUS (HBV) INFECTION” (INSERM (INSTITUT NATIONAL DE LA SANTÉ ET DE LA RECHERCHE …, priority 2018, published 2021).

Assays:
HepaRG cells = assay: Cytotoxicity, CellTiter-Glo Luminescent Cell Viability Assay; assay type: cell-based, Human; settings: highest concentration tested 40 microM
Description: FIG. 5. Anti-HBV properties of 1C8 in persistently infected dHepaRG cells: genotype D. Differentiated HepaRG were infected with HBV genotype D at a MOI of 100 vge/cell or HDV genotype 1 at a MOI of 10 vge/cell for 7 days before being treated trice every 2-3 days with indicated molecules at a concentration of 10 microM. A) Total DNA and RNA were extracted from cells and subjected to qPCR and RTqPCR to detect HBV cccDNA, total HBV RNA or pregenomic HBV RNA. B) HBs and HBe secreted antigens in supernatant were quantified by ELISA, whereas HBV DNA contained in virions was quantified by qPCR after viral nucleic acid extraction from supernatant. C) Intracellular HDV RNA was quantified by RTqPCR after total RNA extraction from cells. D) Viability was monitored in 1C8-treated (or control treated; puromycin is a positive toxic molecule) cells by CellTiter-Glo® luminescent cell viability assay. Results are the mean+SEM of n=3 performed with 3 different differentiations of HepaRG. Statistics were done by two-tailed Mann-Whitney test, with following significativity: *P<0.05, **P<0.01, ***P<0.001, ****P<0.0001. nd=not determined
Cytotoxicity was measured in HepaRG cells treated with drugs as in experimental schemes presented if FIG. 1 with the “CellTiter-Glo® Luminescent Cell Viability Assay” from Promega, by following manufacturer's instructions.

SRSF10 = SRSF10 (Homo sapiens, UniProt O75494); settings: cited from earlier work
Chain of SRSF10 (O75494 whole entry): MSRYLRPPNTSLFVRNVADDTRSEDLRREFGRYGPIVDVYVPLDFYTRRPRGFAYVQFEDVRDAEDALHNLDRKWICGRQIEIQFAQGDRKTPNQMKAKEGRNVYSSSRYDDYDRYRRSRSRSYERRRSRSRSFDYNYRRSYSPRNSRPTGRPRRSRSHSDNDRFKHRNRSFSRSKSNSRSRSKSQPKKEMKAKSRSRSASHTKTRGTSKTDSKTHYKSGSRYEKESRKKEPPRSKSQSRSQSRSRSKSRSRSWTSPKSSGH

## Cn1ccc(=O)c(C(=O)Nc2nsc3ccc([N+](=O)[O-])cc23)c1 [1C8, 4-pyridinonebenzisothiazole carboxamide]
HepaRG cells
  concentration toxic for cells (viability, CellTiter-Glo): > 40 µM
SRSF10
  SRSF10 phosphorylation at serine 133: inhibit SRSF10 phosphorylation at serine 133
